In PubChem BioAssay AID200 (DTP/NCI, 2004):
Where “and” joins values, the source holds several entries; their conditions need not be identical. Identical values can stand only once. Toxic doses and inconclusive results are not listed. How the source made its calls: active means survival T/C of 150% or more; inactive means T/C below 125% in these data.

Tested on: B6C3F1 mice, B16 melanoma ip, median survival T/C
Test: NCI In Vivo Anticancer Drug Screen. Data for tumor model B16 Melanoma (intraperitoneal) in B6C3F1 mice
Conditions: endpoint: median survival time, higher = longer survival
Method in brief: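 Values are T/C ratios: the measurement in treated animals divided by that in vehicle-treated controls, using survival or tumor size in mice carrying transplantable tumors.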

[1] = dose: 50.0 mg/kg/injection, schedule: Q01DX009 (ip), vehicle: saline with Tween-80
[2] = dose: 100.0 mg/kg/injection, schedule: Q01DX009 (ip), vehicle: saline with Tween-80
[3] = dose: 200.0 mg/kg/injection, schedule: Q01DX009 (ip), vehicle: saline with Tween-80
[4] = dose: 12.5 mg/kg/injection, schedule: Q01DX009 (ip), vehicle: Klucel (hydroxypropylcellulose) (HPC)
[5] = dose: 25.0 mg/kg/injection, schedule: Q01DX009 (ip), vehicle: Klucel (hydroxypropylcellulose) (HPC)
[6] = dose: 50.0 mg/kg/injection, schedule: Q01DX009 (ip), vehicle: Klucel (hydroxypropylcellulose) (HPC)
[7] = dose: 100.0 mg/kg/injection, schedule: Q01DX009 (ip), vehicle: Klucel (hydroxypropylcellulose) (HPC)
[8] = dose: 200.0 mg/kg/injection, schedule: Q01DX009 (ip), vehicle: Klucel (hydroxypropylcellulose) (HPC)
[9] = dose: 400.0 mg/kg/injection, schedule: Q01DX009 (ip), vehicle: Klucel (hydroxypropylcellulose) (HPC)
[10] = dose: 12.5 mg/kg/injection, schedule: Q01DX009 (ip), vehicle: saline
[11] = dose: 25.0 mg/kg/injection, schedule: Q01DX009 (ip), vehicle: saline
[12] = dose: 50.0 mg/kg/injection, schedule: Q01DX009 (ip), vehicle: saline
[13] = dose: 100.0 mg/kg/injection, schedule: Q01DX009 (ip), vehicle: saline
[14] = dose: 6.25 mg/kg/injection, schedule: Q01DX009 (ip), vehicle: other
[15] = dose: 25.0 mg/kg/injection, schedule: Q01DX009 (ip), vehicle: saline with Tween-80
[16] = dose: 200.0 mg/kg/injection, schedule: Q01DX009 (ip), vehicle: saline

Measured: T/C

c1nc(N2CC2)c2cnn(C3CCCCO3)c2n1 (stereo not given)
inactive: [1] 91 % of control | [2] 93 % of control | [3] 91 % of control

CCC(C)(OC(C)=O)C(=O)OC1C(=O)OC2CC3C(C)=CC(O)C(O)C3(C)C3C4(O)OCC23C1C(C)C4O (stereo not given)
inactive: dose: 0.25 mg/kg/injection, schedule: Q01DX009 (ip), vehicle: saline + alcohol 100 % of control | dose: 0.5 mg/kg/injection, schedule: Q01DX009 (ip), vehicle: saline + alcohol 115 % of control | dose: 1.0 mg/kg/injection, schedule: Q01DX009 (ip), vehicle: saline + alcohol 112 % of control | dose: 2.0 mg/kg/injection, schedule: Q01DX009 (ip), vehicle: saline + alcohol 109 % of control | dose: 4.0 mg/kg/injection, schedule: Q01DX009 (ip), vehicle: saline + alcohol 109 % of control

COc1ccc(N=C(C)C2C(=O)c3ccccc3C2=O)cc1
inactive: dose: 50.0 mg/kg/injection, schedule: Q01DX009 (ip), vehicle: DMSO 103 % of control | dose: 100.0 mg/kg/injection, schedule: Q01DX009 (ip), vehicle: DMSO 103 % of control | dose: 200.0 mg/kg/injection, schedule: Q01DX009 (ip), vehicle: DMSO 105 % of control | dose: 400.0 mg/kg/injection, schedule: Q01DX009 (ip), vehicle: DMSO 116 % of control | dose: 800.0 mg/kg/injection, schedule: Q01DX009 (ip), vehicle: DMSO 97 % of control

O=c1ssc(=Nc2ccccc2)n1-c1ccccc1
inactive: [4] 98 % of control | [5] 101 % of control | [6] 96 % of control | [7] 97 % of control | [8] 92 % of control | [9] 96 % of control

O=C(NNC(=O)c1cccc(C(=O)NNC(=O)c2ccc(Cl)c(Cl)c2)n1)c1ccc(Cl)c(Cl)c1
inactive: [4] 94 % of control and 105 % of control | [5] 102 % of control | [6] 91 % of control and 102 % of control | [7] 94 % of control and 103 % of control | [8] 105 % of control

CC(C)(C)C(=O)Oc1ccc(N=C(N)N)cc1
inactive: [10] 94 % of control | [11] 94 % of control | [12] 97 % of control | [13] 92 % of control

CC(C)([NH-])CO.CC(C)([NH-])CO.[Cl][Cd][Cl]
inactive: dose: 0.31 mg/kg/injection, schedule: Q01DX009 (ip), vehicle: saline with Tween-80 90 % of control | dose: 0.63 mg/kg/injection, schedule: Q01DX009 (ip), vehicle: saline with Tween-80 89 % of control | dose: 1.25 mg/kg/injection, schedule: Q01DX009 (ip), vehicle: saline with Tween-80 87 % of control

CC(C)C1C(=O)N2CCCC2C2(O)OC(NC(=O)C3C=C4c5cccc6[nH]cc(c56)CC4N(C)C3)(C(C)C)C(=O)N12 (stereo not given)
inactive: dose: 8.0 mg/kg/injection, schedule: Q01DX009 (ip), vehicle: Klucel (hydroxypropylcellulose) (HPC) 106 % of control | dose: 16.0 mg/kg/injection, schedule: Q01DX009 (ip), vehicle: Klucel (hydroxypropylcellulose) (HPC) 109 % of control | dose: 32.0 mg/kg/injection, schedule: Q01DX009 (ip), vehicle: Klucel (hydroxypropylcellulose) (HPC) 117 % of control | dose: 64.0 mg/kg/injection, schedule: Q01DX009 (ip), vehicle: Klucel (hydroxypropylcellulose) (HPC) 105 % of control

c1ccc2c3c(c4c(c2c1)CN(C1CCCCC1)CO4)OCN(C1CCCCC1)C3
inactive: dose: 3.12 mg/kg/injection, schedule: Q01DX009 (ip), vehicle: other 92 % of control | [14] 89 % of control

COC(C(=O)C(O)C(C)O)C1Cc2cc3cc(OC4CC(OC(C)=O)C(OC5CC(O)C(OC)C(C)O5)C(C)O4)cc(O)c3c(O)c2C(=O)C1OC1CC(OC2CC(OC3CC(C)(O)C(OC(=O)C(C)C)C(C)O3)C(O)C(C)O2)C(O)C(C)O1 (stereo not given)
active: dose: 0.5 mg/kg/injection, schedule: Q01DX009 (ip), vehicle: saline with Tween-80 158 % of control | dose: 1.0 mg/kg/injection, schedule: Q01DX009 (ip), vehicle: saline with Tween-80 170 % of control

CN(C)N=Nc1ccc2c(c1)N(C)c1ccc(F)cc1S2
inactive: [14] 106 % of control | dose: 12.5 mg/kg/injection, schedule: Q01DX009 (ip), vehicle: other 113 % of control | dose: 25.0 mg/kg/injection, schedule: Q01DX009 (ip), vehicle: other 115 % of control | dose: 50.0 mg/kg/injection, schedule: Q01DX009 (ip), vehicle: other 120 % of control | dose: 100.0 mg/kg/injection, schedule: Q01DX009 (ip), vehicle: other 117 % of control

CCCCCC#CC1OC12CCCCC2 (stereo not given)
inactive: dose: 12.5 mg/kg/injection, schedule: Q01DX009 (ip), vehicle: saline with Tween-80 100 % of control | [10] 99 % of control | [15] 100 % of control | [11] 105 % of control | [1] 108 % of control | [12] 104 % of control | [2] 100 % of control | [13] 97 % of control | [3] 93 % of control | [16] 95 % of control

NC(Cn1ccc(=O)c(O)c1)C(=O)O (stereo not given)
inactive: [10] 107 % of control | [11] 111 % of control | [12] 101 % of control | [13] 105 % of control | [16] 105 % of control

O=C1c2ccccc2C(Cl)(c2ccc(Cl)cc2)c2ccc(Cl)cc21 (stereo not given)
inactive: [15] 114 % of control | dose: 36.0 mg/kg/injection, schedule: Q01DX009 (ip), vehicle: saline with Tween-80 109 % of control | [1] 116 % of control and 120 % of control | dose: 60.0 mg/kg/injection, schedule: Q01DX009 (ip), vehicle: saline with Tween-80 111 % of control | [2] 115 % of control and 107 % of control | dose: 166.67 mg/kg/injection, schedule: Q01DX009 (ip), vehicle: saline with Tween-80 122 % of control | [3] 117 % of control | dose: 277.78 mg/kg/injection, schedule: Q01DX009 (ip), vehicle: saline with Tween-80 103 % of control

F[B-](F)(F)F
inactive: dose: 12.5 mg/kg/injection, schedule: Q01DX009 (ip), vehicle: gum acacia 99 % of control | dose: 25.0 mg/kg/injection, schedule: Q01DX009 (ip), vehicle: gum acacia 118 % of control | dose: 50.0 mg/kg/injection, schedule: Q01DX009 (ip), vehicle: gum acacia 100 % of control and 106 % of control | dose: 100.0 mg/kg/injection, schedule: Q01DX009 (ip), vehicle: gum acacia 98 % of control and 106 % of control | dose: 200.0 mg/kg/injection, schedule: Q01DX009 (ip), vehicle: gum acacia 108 % of control and 112 % of control | dose: 400.0 mg/kg/injection, schedule: Q01DX009 (ip), vehicle: gum acacia 93 % of control and 99 % of control

CS(=O)(=O)Nc1ccc(C(=O)CCN2CCCCCC2)cc1
inactive: dose: 25.0 mg/kg/injection, schedule: Q01DX009 (ip), vehicle: suspension in saline 122 % of control | dose: 50.0 mg/kg/injection, schedule: Q01DX009 (ip), vehicle: suspension in saline 98 % of control | dose: 100.0 mg/kg/injection, schedule: Q01DX009 (ip), vehicle: suspension in saline 96 % of control | dose: 200.0 mg/kg/injection, schedule: Q01DX009 (ip), vehicle: suspension in saline 92 % of control

Cc1ccc(C(=O)NC2C(=O)NC(C(C)C)C(=O)N3CCCC3C(=O)N(C)CC(=O)N(C)C(C(C)C)C(=O)OC2C)c2c1Oc1c(c(C(=O)NC3C(=O)NC(C(C)C)C(=O)N4CCCC4C(=O)N(C)CC(=O)N(C)C(C(C)C)C(=O)OC3C)c3nc(-c4ccccc4)c(=O)oc3c1C)N2 (stereo not given)
active: dose: 0.5 mg/kg/injection, schedule: Q01DX009 (ip), vehicle: water 157 % of control

C=C(C)CNC1=C(C)C(=O)C2=C(C1=O)[C@H](COC(N)=O)[C@]1(OC)[C@@H]3N[C@@H]3CN21
active: dose: 4.0 mg/kg/injection, schedule: Q01DX001 (ip), vehicle: distilled water + Tween-80 160 % of control | dose: 8.0 mg/kg/injection, schedule: Q01DX001 (ip), vehicle: distilled water + Tween-80 186 % of control | dose: 16.0 mg/kg/injection, schedule: Q01DX001 (ip), vehicle: distilled water + Tween-80 226 % of control
inactive: dose: 0.5 mg/kg/injection, schedule: Q01DX001 (ip), vehicle: distilled water + Tween-80 122 % of control

Nc1nc(=S)c2ncn(C3CC(O)C(CO)O3)c2[nH]1 (stereo not given)
inactive: [10] 101 % of control | [11] 96 % of control | [12] 104 % of control | [13] 104 % of control | [16] 103 % of control | dose: 400.0 mg/kg/injection, schedule: Q01DX009 (ip), vehicle: saline 103 % of control

O=C(Nc1cccc(Cl)c1)C1CCCC1=Nc1cccc(Cl)c1 (stereo not given)
inactive: [1] 99 % of control | [2] 96 % of control | [3] 91 % of control

CCCCC(NC(=O)C(C)N)C(=O)O (stereo not given)
inactive: [6] 102 % of control | [7] 107 % of control | [8] 96 % of control | [9] 93 % of control
